# Experimental data taken from US20200077656A1, “Use of an Acyclic Picolinamide Compound as a Fungicide for Control of Phytopathogenic Fungi in Row Crops” (priority 2017, published 2020).
# Key:
# Sclerotium rolfsii = assay: Field assessment of Sclerotium rolfsii (SCLORO) in peanut, percent stem incidence; details: 42 DAAD, untreated 41.8
# Experimental: Four applications, at two week intervals were made to each trial, starting at growth stage BBCH66 and continuing through BBCH84. The experimental plots were conducted with natural infestation of the pathogen. The treatment was part of an experimental trial designed as a randomized complete block (RCB) with four replications and a plot of approximately 6×40 ft.
# Percent stem incidence (percent of stems with any disease, based on 80 stems counted per plot) was assessed at 42 days after application D (42 DAAD).
# [1] = tested on: Blumeria graminis f. sp. tritici; assay: Field assessment of Blumeria graminis f. sp. tritici (ERYSGT) on wheat; assay type: in vivo
# Experimental: Field Assessment of Blumeria graminis f sp. […] Disease severity was recorded as a percentage of visual diseased foliage on whole plot. […] infection was assessed three times at 12, 19 and 26 days after the last application. The disease infection was recorded following EPPO PP1/26 guideline prescriptions. Area under the disease progress curve (AUDPC) was calculated for each plot using the sets of recorded severity data. Relative AUDPC (% control based on AUDPC) was calculated as percent of the nontreated control.
# [2] = tested on: Cercosporidium personatum; assay: Field assessment of Cercosporidium personatum (MYCOBE) in peanut; assay type: in vivo; details: Table 9, late leaf spot of peanut, AUDPC based
# Cercospora zeae-maydis = assay: Field assessment of Cercospora zeae-maydis (CERCZM) in corn; assay type: in vivo; details: EC + Trycol adjuvant
# Experimental: Field Assessment of Cercospora zeae-Maydis (CERCZM) in Corn: […] The experimental plots were inoculated with grey leaf spot 24 hr after application. […] Disease severity (percentage of visual diseased foliage on whole plot) was assessed five times during the trial (22-50 days after application, DAA). The disease infection was recorded following EPPO PP1/26 guideline prescriptions. Area under the disease progress curve (AUDPC) was calculated for each plot using the sets of recorded severity data. Relative AUDPC (% control based on AUDPC) was calculated as percent of the nontreated control.
# Cercospora arachidicola = assay: Field assessment of Cercospora arachidicola (MYCOAR) in peanut; assay type: in vivo; details: Table 8, early leaf spot of peanut, AUDPC based
# [3] = tested on: Blumeria graminis f. sp. hordei; assay: Greenhouse assessment of Blumeria graminis f. sp. hordei (ERYSGH) on barley; assay type: in vivo; details: inoculated 1 day post application, barley seedlings
# Experimental: Greenhouse Assessment of Blumeria graminis f sp. hordei ([…]) on Barley: In greenhouse studies, technical grades of material were dissolved in acetone, which were then mixed with nine volumes of water containing 100 ppm of Triton X-100. The fungicide formulations were applied onto seedling plants using an automated booth sprayer to run off. All sprayed plants were allowed to dry prior to further handling. Test plants were inoculated with powdery mildew of barley 1-day post application. When disease symptoms were fully expressed on the untreated plants, infection levels were assessed on a scale of 0 to 100 percent disease severity. Percent disease control was calculated using the ratio of disease severity on treated plants relative to untreated plants.
# [4] = 50 g/ha, Agnique BP420 200 mL/ha
# [5] = 75 g/ha, Agnique BP420 300 mL/ha
# [6] = 100 g/ha, Agnique BP420 400 mL/ha
# [7] = 150 g/ha, Agnique BP420 600 mL/ha
# [8] = 100 g/ha, Adsee C80W 80% 250 g/ha
smiles,measurement,setting,value
"COc1ccnc(C(=O)N[C@@H](C)C(=O)O[C@@H](C)C(c2ccc(F)cc2)c2ccc(F)cc2)c1OC(C)=O [Compound I, (S)-1,1-bis(4-fluorophenyl)propan-2-yl (3-acetoxy-4-methoxypicolinoyl)-L-alaninate]",Calc Percent Stem Incidence of SCLORO,Sclerotium rolfsii; [4],41.6%
same,Calc Percent Stem Incidence of SCLORO,"Sclerotium rolfsii; 50 g/ha, MSO 100 g/ha",39.1%
same,Calc Percent Stem Incidence of SCLORO,Sclerotium rolfsii; [5],33.2%
same,Calc Percent Stem Incidence of SCLORO,"Sclerotium rolfsii; 75 g/ha, MSO 150 g/ha",33.0%
same,Calc Percent Stem Incidence of SCLORO,Sclerotium rolfsii; [6],27.9%
same,Calc Percent Stem Incidence of SCLORO,"Sclerotium rolfsii; 100 g/ha, MSO 200 g/ha",28.2%
same,Calc Percent Stem Incidence of SCLORO,Sclerotium rolfsii; [7],29.6%
same,Calc Percent Stem Incidence of SCLORO,"Sclerotium rolfsii; 150 g/ha, MSO 300 g/ha",24.7%
same,% Control (AUDPC) of ERYSGT,"[1]; 5 g ai/ha, EC + Agnique BP-420",C (26-50)
same,% Control (AUDPC) of ERYSGT,"[1]; 5 g ai/ha, SC + Agnique BP-420",C (26-50)
same,% Control (AUDPC) of ERYSGT,"[1]; 20 g ai/ha, EC + Agnique BP-420",A (76-100)
same,% Control (AUDPC) of ERYSGT,"[1]; 20 g ai/ha, SC + Agnique BP-420",B (51-75)
same,% Control (AUDPC) of ERYSGT,"[1]; 40 g ai/ha, EC + Agnique BP-420",A (76-100)
same,% Control (AUDPC) of ERYSGT,"[1]; 40 g ai/ha, SC + Agnique BP-420",A (76-100)
same,% Control (AUDPC) of ERYSGT,"[1]; 60 g ai/ha, EC + Agnique BP-420",A (76-100)
same,% Control (AUDPC) of ERYSGT,"[1]; 60 g ai/ha, SC + Agnique BP-420",A (76-100)
same,% Control (AUDPC) of ERYSGT,"[1]; 80 g ai/ha, EC + Agnique BP-420",A (76-100)
same,% Control (AUDPC) of ERYSGT,"[1]; 80 g ai/ha, SC + Agnique BP-420",A (76-100)
same,% Control (AUDPC) of ERYSGT,"[1]; 120 g ai/ha, EC + Agnique BP-420",A (76-100)
same,% Control (AUDPC) of ERYSGT,"[1]; 120 g ai/ha, SC + Agnique BP-420",A (76-100)
same,Calc Percent Control of MYCOBE,[2]; [4],28.5%
same,Calc Percent Control of MYCOBE,"[2]; 50 g/ha, MSO 100 g/ha",24.0%
same,Calc Percent Control of MYCOBE,[2]; [5],30.0%
same,Calc Percent Control of MYCOBE,"[2]; 75 g/ha, MSO 150 g/ha",26.8%
same,Calc Percent Control of MYCOBE,[2]; [8],26.9%
same,Calc Percent Control of MYCOBE,[2]; [6],36.0%
same,Calc Percent Control of MYCOBE,"[2]; 100 g/ha, MSO 200 g/ha",29.0%
same,Calc Percent Control of MYCOBE,[2]; [7],44.7%
same,Calc Percent Control of MYCOBE,"[2]; 150 g/ha, MSO 300 g/ha",38.5%
same,"Disease control of CERCZM, percent control based on AUDPC",Cercospora zeae-maydis; 50 g ai/ha,B (51-75)
same,"Disease control of CERCZM, percent control based on AUDPC",Cercospora zeae-maydis; 100 g ai/ha,B (51-75)
same,"Disease control of CERCZM, percent control based on AUDPC",Cercospora zeae-maydis; 150 g ai/ha,B (51-75)
same,Calc Percent Control of MYCOAR,Cercospora arachidicola; [4],31.5%
same,Calc Percent Control of MYCOAR,"Cercospora arachidicola; 50 g/ha, MSO 100 g/ha",32.0%
same,Calc Percent Control of MYCOAR,Cercospora arachidicola; [5],35.6%
same,Calc Percent Control of MYCOAR,"Cercospora arachidicola; 75 g/ha, MSO 150 g/ha",36.3%
same,Calc Percent Control of MYCOAR,Cercospora arachidicola; [8],40.3%
same,Calc Percent Control of MYCOAR,Cercospora arachidicola; [6],44.8%
same,Calc Percent Control of MYCOAR,"Cercospora arachidicola; 100 g/ha, MSO 200 g/ha",44.4%
same,Calc Percent Control of MYCOAR,Cercospora arachidicola; [7],57.7%
same,Calc Percent Control of MYCOAR,"Cercospora arachidicola; 150 g/ha, MSO 300 g/ha",52.3%
same,% Control of ERYSGH (disease severity treated relative to untreated),[3]; 0.39 ppm,B (51-75)
same,% Control of ERYSGH (disease severity treated relative to untreated),[3]; 1.56 ppm,A (76-100)
same,% Control of ERYSGH (disease severity treated relative to untreated),[3]; 6.25 ppm,A (76-100)
same,% Control of ERYSGH (disease severity treated relative to untreated),[3]; 25 ppm,A (76-100)
same,% Control of ERYSGH (disease severity treated relative to untreated),[3]; 100 ppm,A (76-100)
